# Active and inactive are the calls of the source. The rule behind the calls is not given here.
# What was measured:
# Mus musculus = assay: Activity against NCI60 cell line xenograft in nude mouse by HF assay; assay type: functional
# [1] = system: Panel NCI-60 (60 carcinoma cell lines); assay: Antiproliferative activity against NCI60 cell line; assay type: functional, Homo sapiens
Structure (SMILES),Activity (Mus musculus),pGI50 [1]
O=C(OC12CC3CC(CC(C3)C1)C2)c1ccc(NCc2cc(O)ccc2O)cc1,10.83,5.44
COc1cccc2c1C(=O)c1c(O)c3c(c(O)c1C2=O)CC(O)(C(=O)CO)CC3OC1CC(N)C(O)C(C)O1 (stereo unspecified),20.67,6.53
CCC1(O)C(=O)OCc2c1cc1n(c2=O)Cc2cc3ccccc3nc2-1 (stereo unspecified),13.67,5.99
N/C(S)=N/N=C/c1ccc(O)cn1,15,5.92
CCCCCCC(O)C(O)CCC(O)C1CCC(CCCCC(O)CC2=CC(C)OC2=O)O1 (stereo unspecified) [ACETOGENINS],inactive,5.53
COc1cc2c(c(OC)c1OC)-c1ccc(OC)c(=O)cc1[C@@H](NC(C)=O)CC2 [COLCHICINE],19.6,5.8
Nc1ccn([C@@H]2O[C@H](CO)[C@@H](O)[C@@H]2O)c(=O)n1 [CYTARABINE],11,5
CN(Cc1cnc2nc(N)nc(N)c2n1)c1ccc(C(=O)N[C@@H](CCC(=O)O)C(=O)O)cc1 [METHOTREXATE],16.8,5.55

# Source: ChEMBL document CHEMBL1138988, “Assessment of in vitro and in vivo activities in the National Cancer Institute's anticancer screen with respect to chemical structure, target specificity, and mechanism of action” (2006)
